Columns and labels:
123I-SAP = 123I-SAP (Homo sapiens, UniProt P02743); test: Quantitative whole body 123I-SAP scintigraphy in patients during drug infusion; type: in vivo
Description: This patient, with a modest load of AL amyloid in the spleen and kidneys, had notable blood pool background of tracer in the heart and circulation before administration of the drug.
This patient, with modest load of AL amyloid in the spleen and kidneys, had notable blood pool background of tracer in the heart and circulation before administration of the drug.
Direct evidence for depletion of SAP from amyloid in the organs and for the mechanism of action of (R)-1-[6-(R)-2-Carboxy-pyrrolidin-1-yl]-6-oxo-hexanoyl]pyrrolidine-2-carboxylic acid was obtained by quantitative whole body scintigraphy using ^123I-SAP as a tracer. Each patient received a standard dose of ^123I-SAP 24 h before the (R)-1-[6-(R)-2-Carboxy-pyrrolidin-1-yl]-6-oxo-hexanoyl]pyrrolidine-2-carboxylic acid infusion started and was scanned immediately before treatment to provide a baseline image and values for localisation of tracer to the amyloid deposits. They were then scanned at intervals thereafter, up to the end of the 48 h infusion. (R)-1-[6-(R)-2-Carboxy-pyrrolidin-1-yl]-6-oxo-hexanoyl]pyrrolidine-2-carboxylic acid caused dramatic clearance of tracer from the plasma, exactly paralleling both in the scintigraphic images and in counting of blood samples, the SAP depletion monitored by immunoassay of the serum. […] At the same time there was a marked decrease in the retention of tracer in amyloid deposits elsewhere, exemplified by the spleen and kidneys, in contrast to the usual situation in control untreated amyloidosis patients (Table 2; FIG. 6).
All patients had systemic AL amyloidosis and received a standard intravenous tracer dose of ^123I-SAP at time zero. After whole body quantitative scintigraphic imaging at 24 h, uptake in liver and spleen were taken as 100% for each individual. Intravenous infusion of the drug (R)-1-[6-(R)-2-Carboxy-pyrrolidin-1-yl]-6-oxo-hexanoyl]pyrrolidine-2-carboxylic acid was then started and scintigraphy with organ counting was repeated at 48 h. The controls received no treatment. Significance of differences between the two groups was sought by t-test.

isolated pure human SAP = isolated pure human SAP (Homo sapiens, UniProt P02743); test: Size exclusion chromatography of isolated pure SAP mixed with drug; type: binding; settings: for Elution volume / Molecular assembly: SAP
isolated pure human SAP, sequence (P02743 20-223): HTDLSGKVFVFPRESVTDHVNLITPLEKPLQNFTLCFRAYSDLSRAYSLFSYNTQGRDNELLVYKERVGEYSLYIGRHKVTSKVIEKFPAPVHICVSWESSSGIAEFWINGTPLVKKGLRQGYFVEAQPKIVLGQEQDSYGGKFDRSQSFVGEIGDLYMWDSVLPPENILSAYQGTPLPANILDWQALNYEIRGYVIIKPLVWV
Description: SAP is a pentamer with 5 identical non-covalently associated protomers each bearing a single calcium dependent ligand binding site on one planar face, the binding (B) face, of the molecule (9). In the absence of calcium, human SAP forms stable decameric dimers, probably via A-face to A-face interactions (11). In the presence of calcium, isolated human SAP rapidly aggregates and precipitates, as a result of molecular lattice formation due to binding of the exposed carboxylate of the Glu167 residue on one SAP molecule by the calcium dependent ligand binding site of another SAP molecule (12,13). This autoaggregation of SAP is inhibited by other ligands to which SAP binds, and all the present inhibitors of SAP binding to amyloid fibrils were active in this respect. However we show here that the greater potency of (R)-1-[6-(R)-2-Carboxy-pyrrolidin-1-yl]-6-oxo-hexanoyl]pyrrolidine-2-carboxylic acid and related compounds, as inhibitors of SAP binding to amyloid fibrils in vitro, results from their capacity to cross link pairs of SAP molecules. The palindromic structure of (R)-1-[6-(R)-2-Carboxy-pyrrolidin-1-yl]-6-oxo-hexanoyl]pyrrolidine-2-carboxylic acid enables it to not only block the ligand binding sites on individual SAP protomers, but could also cross link pairs of pentameric SAP molecules to form B-B face to face decameric dimers.
C-reactive protein (CRP) is a pentraxin closely related to SAP. Samples of isolated pure human SAP or CRP were mixed with (R)-1-[6-(R)-2-Carboxy-pyrrolidin-1-yl]-6-oxo-hexanoyl]pyrrolidine-2-carboxylic acid at the molar ratios shown, with respect to pentraxin protomer, in physiological ionic strength Tris buffered saline pH 8.0, and analysed by size exclusion chromatography precisely as described previously (14). The mixtures and the column eluants contained either no calcium ions or 2 mM calcium, and the concentrations of drug appropriate to maintain the molar ratios indicated above. In the absence of a specific ligand to which it can bind, purified human SAP is insoluble in the presence of calcium and elutes as high molecular weight aggregates in the void volume of the column (14). However in the absence of calcium and ligand, isolated SAP alone forms stable decamers, providing an excellent marker for the elution volume of this molecular assembly (14). Human CRP is a stable pentamer either in the presence or absence of calcium and thus provides a robust marker for the elution position of that molecular form (14).

SAP = SAP binding to experimentally induced amyloid deposits in mice; type: in vivo, mouse; settings: compared with 1-(3-Mercapto-2-methyl-1-oxopropyl)-D-proline
Description: The potency of (R)-1-[6-(R)-2-Carboxy-pyrrolidin-1-yl]-6-oxo-hexanoyl]pyrrolidine-2-carboxylic acid in vivo was initially considered to be consistent with its lower IC50 value in vitro. However the decameric assembly of pentameric SAP molecules, induced by the cross linking capacity of the palindromic drug, is an abnormal molecular configuration which, according to the present invention, will be recognised in vivo and promptly cleared from the circulation. This action of the drug, leading to massive depletion of SAP from the plasma, makes a critical contribution to removal of SAP from the amyloid deposits because the SAP in amyloid is derived from, and in equilibrium with, the plasma SAP pool.

circulating SAP = target: T1, circulating SAP (Mus musculus, UniProt P12246); test: Circulating SAP in normal wild type mice; type: in vivo; settings: none of the routes caused depletion
T1 construct: all the endogenous mouse SAP in the deposits; from tissue; host or cells: mice in vivo: amyloidotic organs, or plasma of normal wild type mice
T1 sequence (P12246 21-224): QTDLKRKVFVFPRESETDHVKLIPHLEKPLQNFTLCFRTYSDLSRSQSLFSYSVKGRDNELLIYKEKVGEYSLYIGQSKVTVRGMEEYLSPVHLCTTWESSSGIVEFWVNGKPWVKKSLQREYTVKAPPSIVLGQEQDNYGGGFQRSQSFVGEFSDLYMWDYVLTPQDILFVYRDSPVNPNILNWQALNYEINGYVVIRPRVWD
Method: When (R)-1-[6-(R)-2-Carboxy-pyrrolidin-1-yl]-6-oxo-hexanoyl]pyrrolidine-2-carboxylic acid was administered by continuous infusion for 5 days via an indwelling osmotic pump, it dissociated both radiolabelled human SAP tracer, with which the amyloid deposits had previously been loaded, and all the endogenous mouse SAP in the deposits (FIG. 3). […] The SAP-(R)-1-[6-(R)-2-Carboxy-pyrrolidin-1-yl]-6-oxo-hexanoyl]pyrrolidine-2-carboxylic acid complex is evidently recognised as abnormal in vivo and swiftly removed from the circulation, but is apparently formed and/or cleared less efficiently in vivo with mouse SAP compared to human SAP.

[1] = 24 h after starting infusion, second patient
[2] = 48 h after starting infusion, second patient
[3] = 48 h after tracer injection (drug infusion started at 24 h), 24 h uptake = 100%, 7 patients
[4] = drug:protein 1:1, calcium present
[5] = drug:protein 10:1, calcium present
[6] = drug:protein 128:1, calcium present

123I-SAP, sequence (P02743 20-223): as the sequence (P02743 20-223) above

O=C(O)[C@H]1CCCN1C(=O)CCCCC(=O)N1CCC[C@@H]1C(=O)O [(R)-1-[6-(R)-2-Carboxy-pyrrolidin-1-yl]-6-oxo-hexanoyl]pyrrolidine-2-carboxylic acid]
Blood pool background of 123I-SAP tracer (123I-SAP; 6 h after starting infusion, first patient): completely absent
Kidney counts, of time 0 (123I-SAP; [1]): 77%
Spleen counts, of time 0 (123I-SAP; [1]): 85%
Blood pool background of 123I-SAP tracer (123I-SAP; 24 h and 48 h after starting infusion, second patient): completely absent
Kidney counts, of time 0 (123I-SAP; [2]): 50%
Spleen counts, of time 0 (123I-SAP; [2]): 54%
123I-SAP retention [mean (SD)%], Liver (123I-SAP; [3]): 125 (20) %
123I-SAP retention [mean (SD)%], Spleen (123I-SAP; [3]): 54 (18) %
Blood pool signal of 123I-SAP tracer (123I-SAP; by 6 h after starting treatment and persisting thereafter): virtually disappeared
Molecular assembly of isolated SAP by gel filtration (isolated pure human SAP; 128 fold or greater molar excess of drug): single pentameric form
Elution volume (isolated pure human SAP; [4]): 10.97 mL
Molecular assembly (isolated pure human SAP; [4]): Decamer
Elution volume (isolated pure human SAP; [5]): 10.97 mL
Molecular assembly (isolated pure human SAP; [5]): Decamer
Elution volume (isolated pure human SAP; [6]): 12.55 mL
Molecular assembly (isolated pure human SAP; [6]): Pentamer
Molecular assembly of isolated SAP by gel filtration (isolated pure human SAP; ratios between equimolar and 100 fold molar excess of drug to SAP protomers): all the SAP is decameric
Activity in inhibiting SAP binding and dissociating SAP from deposits, relative to lead compound (SAP): more active
Routes that caused depletion of circulating SAP in normal wild type mice (circulating SAP): neither oral administration, nor intermittent injection or continuous infusion

— patent publication US8173694B2, “Therapeutic agent” (Pentraxin Therapeutics Limited, priority 2001, dated 2012)
